According to US8987250B2 (Gilead Sciences, Inc., priority 2012, dated 2015):

test system: HIV-IIIb; assay: Test A: Antiviral Assay in MT4 Cells; type: cell-based; settings: Human immunodeficiency virus 1, IIIB, MT4, 120 h, Table 1; MT-4 cells infected with HIV-IIIb, 5 days of incubation, CellTiter-Glo; read-out: EC50
Experimental: The antiviral properties of a compound of the invention may be determined using Test A described below.
Test A: Antiviral Assay in MT4 Cells
For the antiviral assay utilizing MT-4 cells, 0.4 μL of […] test concentration of 3-fold serially diluted compound in DMSO was added to 40 μL of cell growth medium (RPMI 1640, 10% FBS, 1% penicilline/Streptomycine, 1% L-Glutamine, 1% HEPES) in each well of 384-well assay plates (10 concentrations) in quadruplicate.
One mL aliquots of 2×10e6 MT-4 cells were pre-infected for 1 and 3 hours respectively, @ 37° C. with 25 uL (MT4) or of either cell growth medium (mock-infected) or a fresh 1:250 dilution of an HIV-IIIb concentrated ABI stock (0.004m.o.i. for MT4 cells). Infected and uninfected cells were diluted in cell growth medium and 35 uL of 2000 (for MT4) cells was added to each well of the assay plates.
Assay plates were then incubated in a 37° C. incubator. After 5 days of incubation, […] of 2× concentrated CellTiter-Glo™ Reagent (catalog #G7573, Promega Biosciences, Inc., Madison, Wis.) was added to each well of the assay plate. Cell lysis was carried out by incubating at room temperature for 2-3 min and then chemiluminescence was read using the Envision reader (PerkinElmer). […]

| SMILES | EC50 [nM] |
| --- | --- |
| Cc1cc2nc(-n3cccc(-c4ccc5c(cnn5C)c4)c3=O)sc2c(-c2ccc(Cl)cc2)c1[C@H](OC(C)(C)C)C(=O)O [Compound 117, (S)-2-tert-butoxy-2-(7-(4-chlorophenyl)-5-methyl-2-(3-(1-methyl-1H-indazol-5-yl)-2-oxopyridin-1(2H)-yl)benzo[d]thiazol-6-yl)acetic acid] | 14 |
| Cc1cc2nc(-n3cc(-c4ccc5c(cnn5C)c4)ccc3=O)sc2c(-c2ccc(Cl)cc2)c1[C@H](OC(C)(C)C)C(=O)O [Compound 118, (S)-2-tert-butoxy-2-(7-(4-chlorophenyl)-5-methyl-2-(5-(1-methyl-1H-indazol-5-yl)-2-oxopyridin-1(2H)-yl)benzo[d]thiazol-6-yl)acetic acid] | 101 |
| Cc1cc2nc(-c3cccc(-c4ccc5c(cnn5C)c4)c3)sc2c(-c2ccc3c(c2)OC(C)O3)c1[C@H](OC(C)(C)C)C(=O)O (stereo partly drawn) [Compound 119, (2S)-2-tert-butoxy-2-(5-methyl-2-(3-(1-methyl-1H-indazol-5-yl)phenyl)-7-(2-methylbenzo[d][1,3]dioxol-5-yl)benzo[d]thiazol-6-yl)acetic acid] | 237 |
| Cc1cc2nc(-c3cccc(-c4cnn(C)c4C)c3)sc2c(-c2ccc(Cl)cc2)c1[C@H](OC(C)(C)C)C(=O)O [Compound 120, (S)-2-tert-butoxy-2-(7-(4-chlorophenyl)-2-(3-(1,5-dimethyl-1H-pyrazol-4-yl)phenyl)-5-methylbenzo[d]thiazol-6-yl)acetic acid] | 23 |
| Cc1cc2nc(-c3cnc4c(c3)c(C)cn4C)sc2c(-c2ccc(Cl)cc2)c1[C@H](OC(C)(C)C)C(=O)O [Compound 121, (S)-2-tert-butoxy-2-(7-(4-chlorophenyl)-2-(1,3-dimethyl-1H-pyrrolo[2,3-b]pyridin-5-yl)-5-methylbenzo[d]thiazol-6-yl)acetic acid] | 27 |
| Cc1cc2nc(-c3ccnc(-c4cccc(-c5nnn[nH]5)c4)c3)sc2c(-c2ccc(Cl)cc2)c1[C@H](OC(C)(C)C)C(=O)O [Compound 122, (S)-2-(2-(2-(3-(1H-tetrazol-5-yl)phenyl)pyridin-4-yl)-7-(4-chlorophenyl)-5-methylbenzo[d]thiazol-6-yl)-2-tert-butoxyacetic acid] | 5520 |
| Cc1cc2nc(N3CCCN(c4ccc5c(cnn5C)c4)C3=O)sc2c(-c2ccc(Cl)cc2)c1[C@H](OC(C)(C)C)C(=O)O [Compound 123, (S)-2-tert-butoxy-2-(7-(4-chlorophenyl)-5-methyl-2-(3-(1-methyl-1H-indazol-5-yl)-2-oxotetrahydropyrimidin-1(2H)-yl)benzo[d]thiazol-6-yl)acetic acid] | 18 |
| Cc1cc2nc(N3CCN(c4ccc5c(cnn5C)c4)C3=O)sc2c(-c2ccc(Cl)cc2)c1[C@H](OC(C)(C)C)C(=O)O [Compound 124, (S)-2-tert-butoxy-2-(7-(4-chlorophenyl)-5-methyl-2-(3-(1-methyl-1H-indazol-5-yl)-2-oxoimidazolidin-1-yl)benzo[d]thiazol-6-yl)acetic acid] | 21 |
| Cc1cc2nc(N3CC(c4ccc5c(cnn5C)c4)CC3=O)sc2c(-c2ccc(Cl)cc2)c1[C@H](OC(C)(C)C)C(=O)O (stereo partly drawn) [Compound 125, (2S)-2-tert-butoxy-2-(7-(4-chlorophenyl)-5-methyl-2-(4-(1-methyl-1H-indazol-5-yl)-2-oxopyrrolidin-1-yl)benzo[d]thiazol-6-yl)acetic acid] | 205 |
| Cc1cc2nc(N3CCC(c4ccccc4)C3)sc2c(-c2ccc(Cl)cc2)c1[C@H](OC(C)(C)C)C(=O)O (stereo partly drawn) [Compound 126] | 722 |
| Cc1cc2nc(-c3ccnc(-c4cnc5cnn(C)c5c4)c3)sc2c(-c2ccc(Cl)cc2)c1[C@H](OC(C)(C)C)C(=O)O [Compound 129] | 48 |
| Cc1cc2nc(-c3cc(-c4ccc5c(cnn5C)c4)ncn3)sc2c(-c2ccc(Cl)cc2)c1[C@H](OC(C)(C)C)C(=O)O [Compound 130] | 100 |
| Cc1cc2nc(-c3cncc(-c4ccc5c(cnn5C)c4)n3)sc2c(-c2ccc(Cl)cc2)c1[C@H](OC(C)(C)C)C(=O)O [Compound 131] | 8 |
| Cc1cc2nc(-c3cnc4cn(C)nc4c3)sc2c(-c2ccc(Cl)cc2)c1[C@H](OC(C)(C)C)C(=O)O [Compound 132] | 12 |
| Cc1cc2nc(-c3ccc4c(c3)c(N)nn4C)sc2c(-c2ccc(Cl)cc2)c1[C@H](OC(C)(C)C)C(=O)O [Compound 133] | 18 |
| Cc1cc2nc(-c3ccnc(-c4cnc(O)nc4)c3)sc2c(-c2ccc(Cl)cc2)c1[C@H](OC(C)(C)C)C(=O)O [Compound 134] | 3230 |
| Cc1cc2nc(-c3ccnc(-c4cnc(N5CCOCC5)nc4)c3)sc2c(-c2ccc(Cl)cc2)c1[C@H](OC(C)(C)C)C(=O)O [Compound 135] | 17 |
| Cc1cc2nc(-c3ccnc(-c4cnc(N5CCN(C)CC5)nc4)c3)sc2c(-c2ccc(Cl)cc2)c1[C@H](OC(C)(C)C)C(=O)O [Compound 136] | 12 |
| Cc1cc2nc(-c3cccc(-c4cnc5cnn(C)c5c4)c3)sc2c(-c2ccc(Cl)cc2)c1[C@H](OC(C)(C)C)C(=O)O [Compound 137] | 21 |

More lines, now with the values ahead:

| EC50 [nM] | SMILES |
| --- | --- |
| 65 | Cc1cc2nc(-c3ccnc(-c4cnc(C5CCC5)nc4)c3)sc2c(-c2ccc(Cl)cc2)c1[C@H](OC(C)(C)C)C(=O)O [Compound 138] |
| 61 | Cc1cc2nc(-c3ccnc(-c4ccc5c(c4)c(C4CC4)nn5C)c3)sc2c(-c2ccc(Cl)cc2)c1[C@H](OC(C)(C)C)C(=O)O [Compound 139] |
| 5 | Cc1cc2nc(-c3ccnc(-c4ccc(N5CCN(C)CC5)nc4)c3)sc2c(-c2ccc(Cl)cc2)c1[C@H](OC(C)(C)C)C(=O)O [Compound 140] |
| 48 | Cc1cc2nc(-c3cccc(-c4cnc(N(C)C)nc4)c3)sc2c(-c2ccc(Cl)cc2)c1[C@H](OC(C)(C)C)C(=O)O [Compound 142] |
| 24 | COc1ncc(-c2cccc(-c3nc4cc(C)c([C@H](OC(C)(C)C)C(=O)O)c(-c5ccc(Cl)cc5)c4s3)c2)cn1 [Compound 143] |
| 2610 | Cc1cc2nc(-c3cccc(-c4cnc(O)nc4)c3)sc2c(-c2ccc(Cl)cc2)c1[C@H](OC(C)(C)C)C(=O)O [Compound 144] |
| 34 | Cc1cc2nc(-c3cccc(-c4cn(C)nc4C)c3)sc2c(-c2ccc(Cl)cc2)c1[C@H](OC(C)(C)C)C(=O)O [Compound 145] |
| 92 | Cc1cc2nc(-c3cccc(-c4cnn(C5CCCC5)c4)c3)sc2c(-c2ccc(Cl)cc2)c1[C@H](OC(C)(C)C)C(=O)O [Compound 146] |
| 59 | Cc1cc2nc(-c3cccc(-c4cnn(CC(C)C)c4)c3)sc2c(-c2ccc(Cl)cc2)c1[C@H](OC(C)(C)C)C(=O)O [Compound 147] |
| 2700 | Cc1cc2nc(-c3ccnc(-c4cncc(C(=O)O)c4)c3)sc2c(-c2ccc(Cl)cc2)c1[C@H](OC(C)(C)C)C(=O)O [Compound 148] |
| 153 | Cc1cc2nc(-c3ccnc(-c4cncc(C(N)=O)c4)c3)sc2c(-c2ccc(Cl)cc2)c1[C@H](OC(C)(C)C)C(=O)O [Compound 149] |
| 91 | Cc1cc2nc(-c3cccc(-c4cnn(Cc5ccccc5)c4)c3)sc2c(-c2ccc(Cl)cc2)c1[C@H](OC(C)(C)C)C(=O)O [Compound 150] |
| 32 | Cc1cc2nc(-c3cccc(-c4cnn(C(C)C)c4)c3)sc2c(-c2ccc(Cl)cc2)c1[C@H](OC(C)(C)C)C(=O)O [Compound 151] |
| 15 | Cc1cc2nc(-c3cccc(-c4ccc(N5CCN(C)CC5)nc4)c3)sc2c(-c2ccc(Cl)cc2)c1[C@H](OC(C)(C)C)C(=O)O [Compound 153] |
